According to ChEMBL document CHEMBL3046355, “Design, synthesis, and herbicidal activities of novel 2-cyanoacrylates containing isoxazole moieties” (2010):

Assays:
Type in all cases: functional
Echinochloa crus-galli [1] = assay: Herbicidal activity against Echinochloa crus-galli (barnyard grass) assessed as inhibition of weed growth at 1.5 kg/ha using postemergence treatment protocol; conditions: post-emergence
Amaranthus retroflexus [2] = assay: Herbicidal activity against Amaranthus retroflexus assessed as inhibition of weed growth at 1.5 kg/ha using preemergence treatment protocol; conditions: pre-emergence
Brassica napus [3] = assay: Herbicidal activity against Brassica napus (oilseed rape) assessed as inhibition of weed growth at 150 g/ha using postemergence treatment protocol; conditions: post-emergence
Brassica napus [4] = assay: Herbicidal activity against Brassica napus (oilseed rape) assessed as inhibition of weed growth at 375 g/ha using postemergence treatment protocol; conditions: post-emergence
Digitaria sanguinalis [5] = assay: Herbicidal activity against Digitaria sanguinalis (hairy crabgrass) assessed as inhibition of weed growth at 1.5 kg/ha using post-emergence treatment protocol
Amaranthus retroflexus [6] = assay: Herbicidal activity against Amaranthus retroflexus assessed as inhibition of weed growth at 1.5 kg/ha using postemergence treatment protocol; conditions: post-emergence
Brassica napus [7] = assay: Herbicidal activity against Brassica napus (oilseed rape) assessed as inhibition of weed growth at 1.5 kg/ha using postemergence treatment protocol; conditions: post-emergence
Amaranthus retroflexus [8] = assay: Herbicidal activity against Amaranthus retroflexus assessed as inhibition of weed growth at 75 g/ha using postemergence treatment protocol; conditions: post-emergence
Brassica napus [9] = assay: Herbicidal activity against Brassica napus (oilseed rape) assessed as inhibition of weed growth at 1.5 kg/ha using preemergence treatment protocol; conditions: pre-emergence
Digitaria sanguinalis [10] = assay: Herbicidal activity against Digitaria sanguinalis (hairy crabgrass) assessed as inhibition of weed growth at 1.5 kg/ha using pre-emergence treatment protocol
Brassica napus [11] = assay: Herbicidal activity against Brassica napus (oilseed rape) assessed as inhibition of weed growth at 75 g/ha using postemergence treatment protocol; conditions: post-emergence
Amaranthus retroflexus [12] = assay: Herbicidal activity against Amaranthus retroflexus assessed as inhibition of weed growth at 150 g/ha using postemergence treatment protocol; conditions: post-emergence
Echinochloa crus-galli [13] = assay: Herbicidal activity against Echinochloa crus-galli (barnyard grass) assessed as inhibition of weed growth at 1.5 kg/ha using preemergence treatment protocol; conditions: pre-emergence
Amaranthus retroflexus [14] = assay: Herbicidal activity against Amaranthus retroflexus assessed as inhibition of weed growth at 375 g/ha using postemergence treatment protocol; conditions: post-emergence
Brassica napus [15] = assay: Herbicidal activity against Brassica napus (oilseed rape) assessed as inhibition of weed growth at 750 g/ha using postemergence treatment protocol; conditions: post-emergence
Amaranthus retroflexus [16] = assay: Herbicidal activity against Amaranthus retroflexus assessed as inhibition of weed growth at 750 g/ha using postemergence treatment protocol; conditions: post-emergence

`CCOCCOC(=O)/C(C#N)=C(\NCc1cc(-c2ccc(Cl)cc2)no1)C(C)C` was tested, and the inhibition at 1500 g/ha (Echinochloa crus-galli [1]) was 33%, the inhibition at 1500 g/ha (Amaranthus retroflexus [2]) was 68.7% and the inhibition at 150 g/ha (Brassica napus [3]) was 36.3%. For the same compound, the inhibition at 375 g/ha (Brassica napus [4]) was 100%, the inhibition at 1500 g/ha (Digitaria sanguinalis [5]) was 64.1% and the inhibition at 1500 g/ha (Amaranthus retroflexus [6]) was 100%. It also gave an inhibition at 1500 g/ha (Brassica napus [7]) of 100%, an inhibition at 75 g/ha (Amaranthus retroflexus [8]) of 8.7% and an inhibition at 1500 g/ha (Brassica napus [9]) of 10.6%. For the same compound, the inhibition at 1500 g/ha (Digitaria sanguinalis [10]) was 0%, the inhibition at 75 g/ha (Brassica napus [11]) was 29.6% and the inhibition at 150 g/ha (Amaranthus retroflexus [12]) was 26.1%. The inhibition at 1500 g/ha (Echinochloa crus-galli [13]) was 0%, the inhibition at 375 g/ha (Amaranthus retroflexus [14]) was 100% and the inhibition at 750 g/ha (Brassica napus [15]) was 100%. It also gave an inhibition at 750 g/ha (Amaranthus retroflexus [16]) of 100%.
`CCOCCOC(=O)/C(C#N)=C(\NCc1cc(-c2ccc(Cl)cc2Cl)no1)C(C)C` was tested, and the inhibition at 1500 g/ha (Echinochloa crus-galli [1]) was 56.7%, the inhibition at 1500 g/ha (Amaranthus retroflexus [2]) was 50.2% and the inhibition at 150 g/ha (Brassica napus [3]) was 21.8%. For the same compound, the inhibition at 375 g/ha (Brassica napus [4]) was 100%, the inhibition at 1500 g/ha (Digitaria sanguinalis [5]) was 63.3% and the inhibition at 1500 g/ha (Amaranthus retroflexus [6]) was 100%. It also gave an inhibition at 1500 g/ha (Brassica napus [7]) of 100%, an inhibition at 75 g/ha (Amaranthus retroflexus [8]) of 10.9% and an inhibition at 1500 g/ha (Brassica napus [9]) of 21.3%. The inhibition at 1500 g/ha (Digitaria sanguinalis [10]) was 18.1%, the inhibition at 75 g/ha (Brassica napus [11]) was 11.4% and the inhibition at 150 g/ha (Amaranthus retroflexus [12]) was 19.6%. It also gave an inhibition at 1500 g/ha (Echinochloa crus-galli [13]) of 0%, an inhibition at 375 g/ha (Amaranthus retroflexus [14]) of 100% and an inhibition at 750 g/ha (Brassica napus [15]) of 100%. It also gave an inhibition at 750 g/ha (Amaranthus retroflexus [16]) of 100%.
For `CCOCCOC(=O)/C(C#N)=C(\NCc1cc(Br)no1)C(C)C`, the inhibition at 1500 g/ha (Echinochloa crus-galli [1]) was 66.5%, the inhibition at 1500 g/ha (Amaranthus retroflexus [2]) was 60% and the inhibition at 150 g/ha (Brassica napus [3]) was 100%. The inhibition at 375 g/ha (Brassica napus [4]) was 100%, the inhibition at 1500 g/ha (Digitaria sanguinalis [5]) was 42.1% and the inhibition at 1500 g/ha (Amaranthus retroflexus [6]) was 100%. For the same compound, the inhibition at 1500 g/ha (Brassica napus [7]) was 100%, the inhibition at 75 g/ha (Amaranthus retroflexus [8]) was 46.5% and the inhibition at 1500 g/ha (Digitaria sanguinalis [10]) was 0%. The inhibition at 75 g/ha (Brassica napus [11]) was 100%, the inhibition at 150 g/ha (Amaranthus retroflexus [12]) was 90% and the inhibition at 1500 g/ha (Echinochloa crus-galli [13]) was 22.6%. The inhibition at 375 g/ha (Amaranthus retroflexus [14]) was 100%, the inhibition at 750 g/ha (Brassica napus [15]) was 100% and the inhibition at 750 g/ha (Amaranthus retroflexus [16]) was 100%.
Work on `CCOCCOC(=O)/C(C#N)=C(\NCc1ccc(Cl)nc1)SC` yielded an inhibition at 1500 g/ha (Echinochloa crus-galli [1]) of 55.3%, an inhibition at 1500 g/ha (Amaranthus retroflexus [2]) of 32.4% and an inhibition at 150 g/ha (Brassica napus [3]) of 100%. It also gave an inhibition at 375 g/ha (Brassica napus [4]) of 100%, an inhibition at 1500 g/ha (Digitaria sanguinalis [5]) of 54.1% and an inhibition at 1500 g/ha (Amaranthus retroflexus [6]) of 100%. The inhibition at 1500 g/ha (Brassica napus [7]) was 100%, the inhibition at 75 g/ha (Amaranthus retroflexus [8]) was 0% and the inhibition at 1500 g/ha (Brassica napus [9]) was 47.6%. For the same compound, the inhibition at 1500 g/ha (Digitaria sanguinalis [10]) was 18.8%, the inhibition at 75 g/ha (Brassica napus [11]) was 80.9% and the inhibition at 150 g/ha (Amaranthus retroflexus [12]) was 0%. It also gave an inhibition at 1500 g/ha (Echinochloa crus-galli [13]) of 3.6%, an inhibition at 375 g/ha (Amaranthus retroflexus [14]) of 18.7% and an inhibition at 750 g/ha (Brassica napus [15]) of 100%. For the same compound, the inhibition at 750 g/ha (Amaranthus retroflexus [16]) was 87.9%.
With `CCOCCOC(=O)/C(C#N)=C(\NCc1cc(-c2ccccc2Cl)no1)C(C)C` the inhibition at 1500 g/ha (Echinochloa crus-galli [1]) was 47.2%, the inhibition at 1500 g/ha (Amaranthus retroflexus [2]) was 0% and the inhibition at 150 g/ha (Brassica napus [3]) was 100%. The inhibition at 375 g/ha (Brassica napus [4]) was 100%, the inhibition at 1500 g/ha (Digitaria sanguinalis [5]) was 24% and the inhibition at 1500 g/ha (Amaranthus retroflexus [6]) was 100%. It also gave an inhibition at 1500 g/ha (Brassica napus [7]) of 100%, an inhibition at 75 g/ha (Amaranthus retroflexus [8]) of 77% and an inhibition at 1500 g/ha (Digitaria sanguinalis [10]) of 0%. It also gave an inhibition at 75 g/ha (Brassica napus [11]) of 100%, an inhibition at 150 g/ha (Amaranthus retroflexus [12]) of 94.4% and an inhibition at 1500 g/ha (Echinochloa crus-galli [13]) of 0%. It also gave an inhibition at 375 g/ha (Amaranthus retroflexus [14]) of 96%, an inhibition at 750 g/ha (Brassica napus [15]) of 100% and an inhibition at 750 g/ha (Amaranthus retroflexus [16]) of 98.3%.
`CCOCCOC(=O)/C(C#N)=C(\NCc1cc(C(C)C)no1)C(C)C` showed an inhibition at 1500 g/ha (Echinochloa crus-galli [1]) of 12.5%, an inhibition at 1500 g/ha (Amaranthus retroflexus [2]) of 100% and an inhibition at 150 g/ha (Brassica napus [3]) of 92.8%. For the same compound, the inhibition at 375 g/ha (Brassica napus [4]) was 97.7%, the inhibition at 1500 g/ha (Digitaria sanguinalis [5]) was 48.4% and the inhibition at 1500 g/ha (Amaranthus retroflexus [6]) was 100%. It also gave an inhibition at 1500 g/ha (Brassica napus [7]) of 100%, an inhibition at 75 g/ha (Amaranthus retroflexus [8]) of 0% and an inhibition at 1500 g/ha (Digitaria sanguinalis [10]) of 0%. The inhibition at 75 g/ha (Brassica napus [11]) was 52%, the inhibition at 150 g/ha (Amaranthus retroflexus [12]) was 0% and the inhibition at 1500 g/ha (Echinochloa crus-galli [13]) was 5%. It also gave an inhibition at 375 g/ha (Amaranthus retroflexus [14]) of 54.6%, an inhibition at 750 g/ha (Brassica napus [15]) of 100% and an inhibition at 750 g/ha (Amaranthus retroflexus [16]) of 100%.
`CCOCCOC(=O)/C(C#N)=C(\NCc1cc(-c2ccc(OC)cc2)no1)C(C)C` was tested, and the inhibition at 1500 g/ha (Echinochloa crus-galli [1]) was 0%, the inhibition at 1500 g/ha (Amaranthus retroflexus [2]) was 45.2% and the inhibition at 150 g/ha (Brassica napus [3]) was 100%. The inhibition at 375 g/ha (Brassica napus [4]) was 100%, the inhibition at 1500 g/ha (Digitaria sanguinalis [5]) was 14.3% and the inhibition at 1500 g/ha (Amaranthus retroflexus [6]) was 100%. It also gave an inhibition at 1500 g/ha (Brassica napus [7]) of 100%, an inhibition at 75 g/ha (Amaranthus retroflexus [8]) of 65.2% and an inhibition at 1500 g/ha (Brassica napus [9]) of 40.9%. For the same compound, the inhibition at 1500 g/ha (Digitaria sanguinalis [10]) was 0%, the inhibition at 75 g/ha (Brassica napus [11]) was 82.5% and the inhibition at 150 g/ha (Amaranthus retroflexus [12]) was 93.5%. For the same compound, the inhibition at 1500 g/ha (Echinochloa crus-galli [13]) was 0%, the inhibition at 375 g/ha (Amaranthus retroflexus [14]) was 100% and the inhibition at 750 g/ha (Brassica napus [15]) was 100%. The inhibition at 750 g/ha (Amaranthus retroflexus [16]) was 100%.
`CCOCCOC(=O)/C(C#N)=C(\NCc1cc(-c2ccccc2)no1)C(C)C` showed an inhibition at 1500 g/ha (Echinochloa crus-galli [1]) of 40%, an inhibition at 1500 g/ha (Amaranthus retroflexus [2]) of 88.6% and an inhibition at 150 g/ha (Brassica napus [3]) of 97.3%. The inhibition at 375 g/ha (Brassica napus [4]) was 100%, the inhibition at 1500 g/ha (Digitaria sanguinalis [5]) was 59.4% and the inhibition at 1500 g/ha (Amaranthus retroflexus [6]) was 100%. The inhibition at 1500 g/ha (Brassica napus [7]) was 100%, the inhibition at 75 g/ha (Amaranthus retroflexus [8]) was 17.4% and the inhibition at 1500 g/ha (Brassica napus [9]) was 28.7%. It also gave an inhibition at 1500 g/ha (Digitaria sanguinalis [10]) of 24.9%, an inhibition at 75 g/ha (Brassica napus [11]) of 54.2% and an inhibition at 150 g/ha (Amaranthus retroflexus [12]) of 78.3%. For the same compound, the inhibition at 1500 g/ha (Echinochloa crus-galli [13]) was 0%, the inhibition at 375 g/ha (Amaranthus retroflexus [14]) was 100% and the inhibition at 750 g/ha (Brassica napus [15]) was 100%. The inhibition at 750 g/ha (Amaranthus retroflexus [16]) was 100%.
`CCOCCOC(=O)/C(C#N)=C(\NCc1cc(-c2ccccc2OC)no1)C(C)C` was tested, and the inhibition at 1500 g/ha (Echinochloa crus-galli [1]) was 56.4%, the inhibition at 1500 g/ha (Amaranthus retroflexus [2]) was 44.9% and the inhibition at 150 g/ha (Brassica napus [3]) was 27%. For the same compound, the inhibition at 375 g/ha (Brassica napus [4]) was 100%, the inhibition at 1500 g/ha (Digitaria sanguinalis [5]) was 82% and the inhibition at 1500 g/ha (Amaranthus retroflexus [6]) was 95.1%. The inhibition at 1500 g/ha (Brassica napus [7]) was 100%, the inhibition at 75 g/ha (Amaranthus retroflexus [8]) was 17.4% and the inhibition at 1500 g/ha (Brassica napus [9]) was 17.4%. For the same compound, the inhibition at 1500 g/ha (Digitaria sanguinalis [10]) was 5.5%, the inhibition at 75 g/ha (Brassica napus [11]) was 17.1% and the inhibition at 150 g/ha (Amaranthus retroflexus [12]) was 23.9%. The inhibition at 1500 g/ha (Echinochloa crus-galli [13]) was 0%, the inhibition at 375 g/ha (Amaranthus retroflexus [14]) was 100% and the inhibition at 750 g/ha (Brassica napus [15]) was 100%. The inhibition at 750 g/ha (Amaranthus retroflexus [16]) was 100%.
